Laboratory results taken from ChEMBL document CHEMBL1140787, “Discovery of beta-benzamido hydroxamic acids as potent, selective, and orally bioavailable TACE inhibitors” (Bioorg Med Chem Lett, 2008).
Values belong to the compound of their own block, whether it stands above or below them.

What was measured:
Blood = test: Inhibition of LPS-stimulated TNFalpha release in human whole blood; format: functional, tissue-based
[1] = target: Disintegrin and metalloproteinase domain-containing protein 17 (Sus scrofa, UniProt O77636); test: Inhibition of pig TACE
Chain of Disintegrin and metalloproteinase domain-containing protein 17 (O77636 whole entry, the tested form may be a part): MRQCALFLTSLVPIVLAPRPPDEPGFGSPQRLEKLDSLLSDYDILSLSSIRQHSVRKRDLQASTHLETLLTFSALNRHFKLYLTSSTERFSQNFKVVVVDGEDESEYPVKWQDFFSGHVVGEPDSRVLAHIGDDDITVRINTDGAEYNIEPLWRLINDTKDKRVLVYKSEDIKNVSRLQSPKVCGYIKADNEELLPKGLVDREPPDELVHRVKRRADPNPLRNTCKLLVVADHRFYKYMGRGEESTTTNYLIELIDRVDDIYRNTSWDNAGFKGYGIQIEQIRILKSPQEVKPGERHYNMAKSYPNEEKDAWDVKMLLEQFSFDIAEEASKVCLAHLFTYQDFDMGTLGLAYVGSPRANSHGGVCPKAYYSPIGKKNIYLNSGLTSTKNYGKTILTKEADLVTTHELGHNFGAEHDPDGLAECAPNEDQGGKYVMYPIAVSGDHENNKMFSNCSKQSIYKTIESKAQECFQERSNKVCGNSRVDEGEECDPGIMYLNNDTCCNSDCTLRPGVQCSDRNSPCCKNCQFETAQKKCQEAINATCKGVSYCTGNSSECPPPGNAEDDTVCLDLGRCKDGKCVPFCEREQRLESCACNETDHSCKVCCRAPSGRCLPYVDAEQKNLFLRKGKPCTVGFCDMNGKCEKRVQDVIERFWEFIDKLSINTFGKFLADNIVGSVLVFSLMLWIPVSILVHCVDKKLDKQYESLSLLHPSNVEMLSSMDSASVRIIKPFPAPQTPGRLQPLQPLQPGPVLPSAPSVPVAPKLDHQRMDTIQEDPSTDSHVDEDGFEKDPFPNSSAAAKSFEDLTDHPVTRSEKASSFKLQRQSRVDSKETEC

[2] = Permeability across human Caco-2 cell membrane; format: ADME, cell-based
Stromelysin-1 = Stromelysin-1 (Homo sapiens, UniProt P08254); test: Inhibition of MMP3
Chain of Stromelysin-1 (P08254 whole entry): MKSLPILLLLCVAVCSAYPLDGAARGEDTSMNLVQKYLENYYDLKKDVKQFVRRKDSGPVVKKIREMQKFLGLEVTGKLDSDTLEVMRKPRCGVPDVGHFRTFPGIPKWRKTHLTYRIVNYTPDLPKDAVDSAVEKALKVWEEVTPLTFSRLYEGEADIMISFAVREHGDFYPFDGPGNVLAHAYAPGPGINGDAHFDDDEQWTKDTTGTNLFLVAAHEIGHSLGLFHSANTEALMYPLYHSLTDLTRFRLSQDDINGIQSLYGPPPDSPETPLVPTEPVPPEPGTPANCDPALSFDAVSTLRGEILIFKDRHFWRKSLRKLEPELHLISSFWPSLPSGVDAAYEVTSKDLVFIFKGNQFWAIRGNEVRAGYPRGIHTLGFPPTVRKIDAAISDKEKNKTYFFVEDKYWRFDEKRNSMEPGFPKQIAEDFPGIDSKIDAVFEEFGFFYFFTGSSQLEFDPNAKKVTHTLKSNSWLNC

Matrilysin = target: T1, Matrilysin (Homo sapiens, UniProt P09237); test: Inhibition of MMP7
T1 sequence (P09237 whole entry): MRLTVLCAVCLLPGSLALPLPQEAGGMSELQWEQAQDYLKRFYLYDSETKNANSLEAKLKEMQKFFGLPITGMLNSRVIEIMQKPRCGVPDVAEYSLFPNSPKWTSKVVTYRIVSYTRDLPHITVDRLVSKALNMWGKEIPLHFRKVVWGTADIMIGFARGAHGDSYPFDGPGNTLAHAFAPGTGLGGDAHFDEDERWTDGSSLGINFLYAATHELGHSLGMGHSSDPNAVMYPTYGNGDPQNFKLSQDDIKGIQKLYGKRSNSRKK

Stromelysin-2 = Stromelysin-2 (Homo sapiens, UniProt P09238); test: Inhibition of MMP10
Chain of Stromelysin-2 (P09238 whole entry): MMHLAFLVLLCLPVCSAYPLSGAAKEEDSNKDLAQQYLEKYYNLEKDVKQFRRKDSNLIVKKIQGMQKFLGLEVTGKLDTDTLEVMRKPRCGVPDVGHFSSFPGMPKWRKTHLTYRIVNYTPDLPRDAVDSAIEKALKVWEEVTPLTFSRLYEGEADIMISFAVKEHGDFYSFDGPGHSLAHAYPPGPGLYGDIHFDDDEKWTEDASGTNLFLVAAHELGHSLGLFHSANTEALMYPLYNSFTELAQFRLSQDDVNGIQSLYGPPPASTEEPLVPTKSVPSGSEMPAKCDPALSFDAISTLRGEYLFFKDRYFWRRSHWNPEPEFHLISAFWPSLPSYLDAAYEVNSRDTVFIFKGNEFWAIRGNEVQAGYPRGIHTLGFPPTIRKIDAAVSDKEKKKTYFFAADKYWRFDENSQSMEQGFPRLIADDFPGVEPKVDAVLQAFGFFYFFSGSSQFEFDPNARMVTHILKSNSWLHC

[3] = target: Macrophage metalloelastase (Homo sapiens, UniProt P39900); test: Inhibition of MMP12
Chain of Macrophage metalloelastase (P39900 whole entry): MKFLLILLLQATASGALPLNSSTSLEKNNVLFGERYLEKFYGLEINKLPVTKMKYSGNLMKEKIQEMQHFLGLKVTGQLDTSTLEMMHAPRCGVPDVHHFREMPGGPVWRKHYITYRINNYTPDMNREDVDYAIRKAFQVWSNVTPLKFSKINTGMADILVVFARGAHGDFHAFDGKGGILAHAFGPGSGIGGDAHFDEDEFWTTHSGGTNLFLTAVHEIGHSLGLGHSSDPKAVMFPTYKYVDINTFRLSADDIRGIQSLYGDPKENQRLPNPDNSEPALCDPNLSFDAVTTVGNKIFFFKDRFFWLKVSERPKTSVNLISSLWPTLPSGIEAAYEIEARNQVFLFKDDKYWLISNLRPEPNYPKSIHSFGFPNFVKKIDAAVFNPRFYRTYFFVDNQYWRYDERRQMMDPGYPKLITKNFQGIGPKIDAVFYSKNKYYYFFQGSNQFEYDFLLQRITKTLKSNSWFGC

[4] = Fraction unbound in rat serum; format: ADME, cell-free
[5] = Fraction unbound in dog serum; format: ADME, cell-free, Canis lupus familiaris
[6] = Fraction unbound in human serum; format: ADME, cell-free
Cytochrome P450 3A4 = Cytochrome P450 3A4 (Homo sapiens, UniProt P08684); test: Inhibition of CYP3A4 at 20 uM; format: ADME
Chain of Cytochrome P450 3A4 (P08684 whole entry): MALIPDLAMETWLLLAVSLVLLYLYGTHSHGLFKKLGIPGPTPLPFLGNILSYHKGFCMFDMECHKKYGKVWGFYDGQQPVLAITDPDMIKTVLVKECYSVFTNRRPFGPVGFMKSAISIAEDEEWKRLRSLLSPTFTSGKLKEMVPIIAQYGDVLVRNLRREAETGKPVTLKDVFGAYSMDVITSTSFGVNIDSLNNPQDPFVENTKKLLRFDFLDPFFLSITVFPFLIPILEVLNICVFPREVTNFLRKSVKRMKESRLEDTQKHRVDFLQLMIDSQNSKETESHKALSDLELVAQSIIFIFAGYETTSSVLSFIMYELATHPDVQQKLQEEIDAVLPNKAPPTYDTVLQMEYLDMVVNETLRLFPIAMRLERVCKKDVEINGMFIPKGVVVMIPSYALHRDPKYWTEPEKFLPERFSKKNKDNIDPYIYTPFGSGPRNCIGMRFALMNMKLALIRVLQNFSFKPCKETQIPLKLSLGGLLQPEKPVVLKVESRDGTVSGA

Mus musculus = test: Inhibition of LPS-induced TNFalpha production in po dosed mouse endotoxemia model; format: functional
Rattus norvegicus = test: Inhibition of LPS-induced TNFalpha production in po dosed rat endotoxemia model; format: functional
[7] = Half life in Sprague-Dawley rat at 2 mg/kg, iv; format: ADME, organism-based; design: dose 2 mg/kg, route intravenous; conditions: in vivo
[8] = Clearance in Sprague-Dawley rat at 2 mg/kg, iv; format: ADME, organism-based; design: dose 2 mg/kg, route intravenous; conditions: in vivo
[9] = Volume of distribution at steady state in Sprague-Dawley rat at 2 mg/kg, iv; format: ADME, organism-based; design: dose 2 mg/kg, route intravenous; conditions: in vivo, read-out: Vdss
[10] = AUC in Sprague-Dawley rat at 2 mg/kg, iv; format: ADME, organism-based; design: dose 2 mg/kg, route intravenous; conditions: plasma
[11] = AUC in Sprague-Dawley rat at 40 mg/kg, po; format: ADME, organism-based; design: dose 40 mg/kg, route oral; conditions: plasma
[12] = Oral bioavailability in Sprague-Dawley rat at 40 mg/kg; format: ADME, organism-based; conditions: in vivo
[13] = Tmax in Sprague-Dawley rat at 40 mg/kg, po; format: ADME, organism-based; design: dose 40 mg/kg, route oral; conditions: in vivo
[14] = Half life in Beagle dog at 2 mg/kg, iv; format: ADME, organism-based, Canis lupus familiaris; design: dose 2 mg/kg, route intravenous; conditions: in vivo
[15] = Clearance in Beagle dog at 2 mg/kg, iv; format: ADME, organism-based, Canis lupus familiaris; design: dose 2 mg/kg, route intravenous; conditions: in vivo
[16] = Volume of distribution at steady state in Beagle dog at 2 mg/kg, iv; format: ADME, organism-based, Canis lupus familiaris; design: dose 2 mg/kg, route intravenous; conditions: in vivo, read-out: Vdss
[17] = AUC in Beagle dog at 2 mg/kg, iv; format: ADME, organism-based, Canis lupus familiaris; design: dose 2 mg/kg, route intravenous; conditions: plasma
[18] = AUC in Beagle dog at 8 mg/kg, po; format: ADME, organism-based, Canis lupus familiaris; design: dose 8 mg/kg, route oral; conditions: plasma
[19] = Oral bioavailability in Beagle dog at 8 mg/kg; format: ADME, organism-based, Canis lupus familiaris; conditions: in vivo
[20] = Tmax in Beagle dog at 8 mg/kg, po; format: ADME, organism-based, Canis lupus familiaris; design: dose 8 mg/kg, route oral; conditions: in vivo

Compound: Cc1cc(COc2ccc(C(=O)N[C@@H]3CN(C(C)(C)C)CC[C@@H]3C(=O)NO)cc2)c2ccccc2n1
IC50 [1]: 2 nM
IC50 (Blood): 44 nM
Papp [2]: 0.6 ×10⁻⁶ cm/s

Compound: Cc1cc(COc2ccc(C(=O)N[C@@H]3CCOC[C@@H]3C(=O)NO)cc2)c2ccccc2n1
IC50 [1]: < 1 nM
Ki [1]: 0.15 nM
IC50 (Blood): 130 nM
Papp [2]: 2.3 ×10⁻⁶ cm/s
Ki (Stromelysin-1): < 100 nM
Ki (Matrilysin): < 100 nM
Ki (Stromelysin-2): < 100 nM
Ki [3]: < 100 nM
fraction unbound [4]: 0.038
fraction unbound [5]: 0.17
fraction unbound [6]: 0.075
Activity (Cytochrome P450 3A4): Not Active
ED50 (Mus musculus): 2.2 mg/kg
ED50 (Rattus norvegicus): 3 mg/kg
half-life [7]: 84 min
clearance [8]: 11.7 mL/min/kg
Vd [9]: 0.4 L/kg
AUC [10]: 5.7 µM·h
AUC [11]: 65 µM·h
bioavailability [12]: 58%
Tmax [13]: 24 min
half-life [14]: 96 min
clearance [15]: 28.3 mL/min/kg
Vd [16]: 1.6 L/kg
AUC [17]: 2.7 µM·h
AUC [18]: 11 µM·h
bioavailability [19]: 96%
Tmax [20]: 12 min

Compound: Cc1cc(COc2ccc(C(=O)N[C@@H]3COCC[C@@H]3C(=O)NO)cc2)c2ccccc2n1
IC50 [1]: < 1 nM
IC50 (Blood): 290 nM
Papp [2]: 0.4 ×10⁻⁶ cm/s

Compound: Cc1cc(COc2ccc(C(=O)N[C@@H]3CCCC[C@@H]3C(=O)NO)cc2)c2ccccc2n1
IC50 [1]: 2 nM
IC50 (Blood): 890 nM
Papp [2]: 3.4 ×10⁻⁶ cm/s

Compound: Cc1cc(COc2ccc(C(=O)N[C@@H]3CNCC[C@@H]3C(=O)NO)cc2)c2ccccc2n1
IC50 [1]: 1 nM
IC50 (Blood): 187 nM
Papp [2]: 0.2 ×10⁻⁶ cm/s

Compound: Cc1cc(COc2ccc(C(=O)N[C@H]3CNCC[C@@H]3C(=O)NO)cc2)c2ccccc2n1
IC50 [1]: < 1 nM
IC50 (Blood): 393 nM

Now from value to compound:

IC50 (Blood): 20 nM
Compound: Cc1cc(COc2ccc(NC(=O)[C@@H]3[C@@H](C(=O)NO)CCCN3C)cc2)c2ccccc2n1

IC50 [1]: 2 nM
IC50 (Blood): 55 nM
Papp [2]: 0.1 ×10⁻⁶ cm/s
Compound: Cc1cc(COc2ccc(C(=O)N[C@@H]3CN(CCN(C)C)CC[C@@H]3C(=O)NO)cc2)c2ccccc2n1

IC50 [1]: 2 nM
IC50 (Blood): > 3000 nM
Compound: Cc1cc(COc2ccc(C(=O)N[C@@H]3CCCC[C@H]3C(=O)NO)cc2)c2ccccc2n1

IC50 [1]: 1 nM
IC50 (Blood): 2860 nM
Papp [2]: 0.4 ×10⁻⁶ cm/s
Compound: Cc1cc(COc2ccc(C(=O)NC3CCC3C(=O)NO)cc2)c2ccccc2n1 (configuration not stated)

IC50 [1]: 24 nM
IC50 (Blood): 620 nM
Papp [2]: 0.2 ×10⁻⁶ cm/s
Compound: Cc1cc(COc2ccc(C(=O)N[C@@H]3CCNC[C@@H]3C(=O)NO)cc2)c2ccccc2n1

IC50 [1]: 3 nM
IC50 (Blood): 4110 nM
Papp [2]: 0.06 ×10⁻⁶ cm/s
Compound: Cc1cc(COc2ccc(C(=O)N[C@@H]3CCCO[C@@H]3C(=O)NO)cc2)c2ccccc2n1
